Where a SMILES comes first, the peptide text is derived from it.

The conditions of the first data set: acidic group.
For the molecule `Cc1n[nH]c(O)c1-c1ccccc1`, the pKa is 11.4.

With `CC(C)C1=CC2=CC[C@H]3[C@@](C)(CCC[C@]3(C)C(=O)O)[C@@H]2CC1`, the pKa came to 6.4.

`O=C(O)c1ccc([N+](=O)[O-])cc1` gave a pKa of 3.43.

Molecule `O=C(O)CS` gave a pKa of 3.38.

The molecule `C[NH+]1CCC(n2nc(-c3ccccc3)c(Cc3ccccc3)c2O)CC1` gave a pKa of 6.73.

`CN(C)c1cccc(O)c1` registered a pKa of 9.85.

`Cn1cnc2c(N=O)c(O)ccc21` yielded a pKa of 6.76.

Molecule `N#CCC#N` displayed a pKa of 11.2.

For `N#CC(C#N)=NNc1c(Cl)cccc1Cl`, the pKa worked out at 4.7.

With `Oc1ccc(O)c(Br)c1`, the pKa stood at 8.67.

Molecule `O=CC1=CC=CC1` came in with a pKa of 7.4.

The molecule `NC(=S)Nc1ccc(Cl)cc1` came in with a pKa of 12.3.

The molecule `O=C(O)CCC(=O)c1ccc2ccccc2c1` returned a pKa of 4.96.

For the molecule `NC(=O)CS(N)(=O)=O`, the pKa was found to be 9.7.

In turn, `N#CC(C#N)Cc1ccc(Cl)cc1` registered a pKa of 11.5.

`CC=O` registered a pKa of 16.8.

`O=C(O)[C@@H](O)Cc1c[nH]c[nH+]1` returned a pKa of 2.99.

`Cc1cccc(C)c1C(=O)O` showed a pKa of 3.23.

`O=C(O)C[NH+](CC(=O)O)Cc1cc(Cl)cc(C[NH+](CC(=O)O)CC(=O)O)c1O` yielded a pKa of 2.

`CC(=O)C(Cc1ccc(C#N)cc1)C(C)=O` gave a pKa of 9.69.

In turn, `Brc1ccc(-c2nnn[nH]2)cc1` showed a pKa of 3.73.

Consider `O=C(O)CC#Cc1ccccc1`, for which the pKa stood at 3.44.

`O=[N+]([O-])c1ccccc1[Se]O`: the pKa turned out to be 10.5.

Molecule `CCOCCn1c(N2CCC[NH+](CCCCn3cc(C(=O)O)cn3)CC2)[nH+]c2ccccc21` showed a pKa of 3.7.

`O=C1NC(=O)c2c1cccc2[N+](=O)[O-]` came in with a pKa of 8.8.

In turn, `C=CC(Cl)C(=O)O` (stereo not given) returned a pKa of 2.54.

Molecule `Cc1cccc(C(C)[N+](=O)[O-])c1` (stereo not given) returned a pKa of 7.49.

`O=P(O)(O)C([NH2+]Cc1cc[nH+]cc1)c1ccccc1O` (stereo not given) returned a pKa of 2.28.

Molecule `O=[N+]([O-])c1ccc2[nH]cnc2c1` yielded a pKa of 10.6.

Take `C[N+](C)(C)CCc1ccc(O)cc1`: the pKa came to 9.8.

On to `O=C1C(O)=C(c2ccccc2)C(=O)c2ccccc21`, for which the pKa is 4.35.

In the case of `O=C1O[C@@H]([C@H](O)[C@@H](O)[C@@H](O)CO)C(O)=C1O`, the pKa worked out at 4.3.

As for `O=C(O)CCCc1cccs1`, the pKa was 4.54.

On to `O=C(CC(=O)C(F)(F)F)c1cccs1`, for which the pKa came out at 6.31.

Regarding `Cc1c[nH]c(C(=O)O)c1`, the pKa was determined as 4.6.

Take `C[NH+](C)Cc1ccc(NC(=O)/C=N/O)cc1`: the pKa was 8.43.

For `O=[N+]([O-])c1n[nH]c(-n2cnc(Cl)n2)n1`, the pKa was 1.59.

Molecule `CC(=O)C(=O)CC(=O)C(C)=O` had a pKa of 4.68.

For the molecule `O=C([O-])[C@@H]1O[C@H](Oc2ccc3[nH+]c(O)ccc3c2)[C@@H](O)[C@H](O)[C@H]1O`, the pKa was determined as 3.75.

Molecule `Cc1cccc([NH3+])c1C(=O)O` had a pKa of 3.2.

`O=C(O)CSc1ccc([N+](=O)[O-])cc1` returned a pKa of 3.2.

Molecule `Cc1ccc(C(=O)O)c(O)c1` showed a pKa of 3.11.

As for `CCOC(=O)C(=NO)C(=O)OCC`, the pKa was found to be 5.48.

Molecule `CC[NH+]1CCC[C@@H]1CNC(=O)c1c(OC)ccc([N+](=O)[O-])c1O` showed a pKa of 5.75.

`C/C(=C/Cl)C(=O)O` yielded a pKa of 3.05.

As for `Nc1nc2c(ncn2[C@H]2O[C@@H](CO)[C@H](O)[C@@H]2O)c(O)[nH+]1`, the pKa came out at 1.9.

`CCCCS` showed a pKa of 10.8.

For the molecule `[NH3+]CC(=O)N1CCC[C@H]1C(=O)O`, the pKa was found to be 2.95.

Take `Cc1c([N+](=O)[O-])cc(Cl)c2nnn(O)c12`: the pKa was 3.17.

As to `Sc1cccc2ccc[nH+]c12`, the pKa is 2.05.

`COc1ccc(O)c(N)c1` came in with a pKa of 10.

`O=C([O-])C[NH+](CCNS(=O)(=O)c1ccc(CCBr)cc1)CC(=O)[O-]` gave a pKa of 7.75.

On to `CCOC(=O)N1CCc2noc(O)c2CC1`, for which the pKa is 4.7.

Molecule `O=[N+]([O-])c1ccc2ccc(O)cc2c1` returned a pKa of 8.81.

The molecule `CCC1C(=O)c2ccccc2C1=O` had a pKa of 6.5.

`O=[N+]([O-])c1cccc(O)c1` had a pKa of 8.31.

Turning to `CC1CCCC(C(=O)O)c2nnnn21` (stereo not given), the pKa came to 3.3.

The same data set, now with this note: basic group.
Take `CN1CCC1`: the pKa worked out at 10.4.

For the molecule `CN(C)Cc1cc(/N=N/c2ccccc2)ccc1[O-]`, the pKa was 10.2.

`NCCCCc1ccccn1` yielded a pKa of 10.3.

`C[NH+](C)CCCNc1c2ccccc2nc2c(Cl)ccc([N+](=O)[O-])c12` came in with a pKa of 5.

The molecule `CC[NH+](CC)CCNc1nc(C)nc(Nc2ccc(Cl)cc2)n1` came in with a pKa of 4.02.

On to `C[n+]1ccc([O-])nc1[O-]`, for which the pKa came to 9.73.

Molecule `COc1cc(S(C)=O)ccc1-c1nc2cnccc2[nH]1` (stereo not given) had a pKa of 6.16.

Turning to `Cn1cnc2c(N=O)c(O)ccc21`, the pKa was found to be 3.31.

Consider `Nc1ccc(Cc2ccc(N)cc2)cc1`, for which the pKa came out at 5.1.

`CN(C)c1ccc(C=O)cc1` showed a pKa of 1.6.

The molecule `COc1cc2c(cc1OC)C(=O)Cc1ccc3c(c1CN(C)CC2)OCO3` returned a pKa of 8.09.

In turn, `CCC(C)(C)NC1CCCCC1` gave a pKa of 11.2.

Consider `N#CC(C#N)=NNc1c(Cl)cccc1Cl`, for which the pKa is -0.67.

Turning to `c1coc(CNCC[NH2+]Cc2ccco2)c1`, the pKa is 5.74.

Take `c1ccc(N=P(c2ccccc2)(c2ccccc2)c2ccccc2)cc1`: the pKa was -0.92.

`Cc1ccc(N)cc1C`: the pKa worked out at 4.94.

`Cc1c2ccncc2cc2c1[nH]c1cc[nH+]cc12` gave a pKa of 5.3.

In turn, `C/C=C1/CN2CC[C@]34C(=C(C(=O)OC)[C@H]1C[C@H]23)Nc1ccccc14` registered a pKa of 7.46.

In turn, `COc1ccc(-c2cnc(-c3ccc([NH3+])cc3)o2)cc1` displayed a pKa of 0.27.

Consider `CC(C)S(=O)(=O)n1c(N)nc2ccc(/C(=C/C(N)=O)c3cc(F)ccc3F)cc21`, for which the pKa amounted to 3.4.

Molecule `COc1ccc(C(=N)c2ccccc2)c(OC)c1` yielded a pKa of 8.3.

For the molecule `Cc1nc(N)c2ncsc2n1`, the pKa was 4.56.

With `Nc1ccc(/N=N/c2ccccc2)cc1`, the pKa stood at 2.82.

For the molecule `NCC#CC#CCCC(=O)[O-]`, the pKa is 8.26.

In the case of `Cc1c(O)c(=O)n(-c2ccccc2)n1C`, the pKa was -0.22.

Turning to `Cc1ccc([N+](=O)[O-])c2c(NCCC[NH+](C)C)cc(-c3ccccc3)nc12`, the pKa was determined as 5.43.

On to `CC(C)CCCC(C)N` (stereo not given), for which the pKa is 10.3.

On to `CN(C)c1cccc2cccc([NH+](C)C)c12`, for which the pKa is -9.

Molecule `CC=O` showed a pKa of -0.57.

As to `COc1ccc2c(c1)C(O)N(C)C=C2` (stereo not given), the pKa turned out to be 2.15.

As to `NC(CC(=O)[O-])c1ccccn1` (stereo not given), the pKa was 9.22.

The molecule `Cc1nnc(C)c(C)c1C` had a pKa of 5.36.

As for `C1CNCNC1`, the pKa was 8.84.

Turning to `CC(=O)c1ccc(N)cc1`, the pKa is 2.27.

The molecule `Oc1ccccc1CNC1CCCCC1` gave a pKa of 8.67.

Molecule `CCN(CCO)c1ccc(N)cc1` showed a pKa of 7.12.

As to `OCCN1CCNCC1`, the pKa was found to be 9.33.

Regarding `NC(Cc1cccnc1)C(=O)[O-]` (stereo not given), the pKa was found to be 9.26.

The molecule `NC(=O)C[C@H](NC(=O)[C@@H](N)CS)C(=O)O` (H-Cys-Asn-OH) gave a pKa of 7.05.

On to `CC1CC(/C=C2\CC(C)(C)CN2)=NC1(C)C` (stereo not given), for which the pKa was determined as 12.1.

Molecule `N=C(Nc1ccccc1)Nc1ccccc1` displayed a pKa of 9.94.

`Cc1cc(N)nc2c1ccc1ccccc12` gave a pKa of 6.02.

The molecule `N[C@@H]1CCC[C@H](O)C1` showed a pKa of 10.1.

As to `CC1(C)OC(=O)C[C@H]2[C@@H](C(=O)[O-])NC[C@H]21`, the pKa is 9.

As for `COCCNc1ccc(OC)cc1`, the pKa amounted to 5.02.

Molecule `C[NH+](C)CCCNc1c2ccccc2nc2c(F)ccc([N+](=O)[O-])c12` had a pKa of 5.41.

For `CCCNCC(=O)[O-]`, the pKa was 10.2.

For the molecule `c1ccc(-c2cccc(-c3ccccn3)n2)nc1`, the pKa worked out at 4.66.

`O=[N+]([O-])c1ccc2[nH]cnc2c1` gave a pKa of 3.77.

`[NH3+]CCCc1cccnc1` had a pKa of 5.19.

With `[O-]c1cc2ccccc2nn1`, the pKa was 8.61.

Regarding `Nc1ccc2nccnc2c1`, the pKa stood at 2.95.

`CCCCCCCCCCN(CC(O)CC)CC(O)CC` (stereo not given) displayed a pKa of 6.6.

`c1ccc(C2CN2)cc1` (stereo not given) displayed a pKa of 6.47.

Molecule `CCC(=O)C(CCN1CCCCC1)(c1ccccc1)c1ccccc1` displayed a pKa of 8.86.

For the molecule `CNc1ncnc2scnc12`, the pKa was found to be 2.84.

In the case of `CCN(CC)CCSCC(C)C`, the pKa worked out at 8.83.

`C=CCc1c(O)n[nH]c1C`: the pKa is 2.8.

Turning to `ClCCN1CCOCC1`, the pKa amounted to 6.27.

Regarding `O=C(CCCN1CCOCC1)c1ccccc1`, the pKa turned out to be 7.26.

The molecule `Cc1ccc(-c2ncc(-c3ccc(Cl)cc3)o2)cc1` yielded a pKa of 0.88.

Turning to `C[n+]1c(NN)ccc2ccccc21`, the pKa is 2.66.

`Cc1ccc(/N=C/N(C)C)cc1` returned a pKa of 9.21.

In the case of `C[NH+](C)CC(C)(C)CN`, the pKa was 7.4.

In the case of `C[C@H]1C[NH2+][C@@H](C)CN1`, the pKa is 5.23.

`CN(CC[NH3+])CC[NH+](C)C` gave a pKa of 3.19.

With `CN(C)/C=N/c1ccccc1Cl`, the pKa turned out to be 6.85.

Molecule `CCOCCNc1ccc(C)cc1` yielded a pKa of 4.6.

Consider `O=C([O-])[C@@H]1O[C@H](Oc2cnc3ccccc3c2)[C@@H](O)[C@H](O)[C@H]1O`, for which the pKa came out at 3.95.

As for `CC1=C(CC(C)[NH2+]CC(O)c2ccc(N)cc2)CCC1(C)C` (stereo not given), the pKa turned out to be 3.69.

`Cn1c(N)nc(=O)c2[nH]cnc21` returned a pKa of 4.61.

Molecule `CC(Cc1ccccc1)N(C)CCC#N` (stereo not given) registered a pKa of 6.95.

Turning to `CSc1ccc(N)cc1`, the pKa turned out to be 4.4.

The molecule `Nc1cc(/C=C/c2ccccc2)nc2ccccc12` yielded a pKa of 9.3.

As to `O=C(CCN1CCCCC1)c1ccccc1`, the pKa was 9.23.

Regarding `CNCCCc1ccccc1`, the pKa is 10.6.

`O=[PH]([O-])C([NH2+]Cc1cccnc1)c1ccccc1O` (stereo not given) returned a pKa of 3.25.

`c1csc(C2CCCN2)c1` (stereo not given): the pKa was determined as 9.35.

For orientation: pKa means the negative logarithm of the acid dissociation constant. A higher pKa goes with a weaker acid or stronger base.
